Results taken from PubChem BioAssay AID1259407 (Chemical Carcinogenesis Research Information System (CCRIS), 2018).
Active and inactive are the calls of the source. The rule behind the calls is not given here.

System: CCRIS mutagenicity, Ames/micronucleus/aberration tests
Assay: CCRIS mutagenicity studies

Measured: mutagenic call

O=C(O)c1cccc(Cl)c1
inactive: Test System: AMES SALMONELLA TYPHIMURIUM, Strain/Indicator: TA97, Metabolic Activation: HAMSTER, LIVER, S-9, AROCLOR 1254 (10%), Method: PREINCUBATION inactive; negative | Test System: AMES SALMONELLA TYPHIMURIUM, Strain/Indicator: TA97, Metabolic Activation: HAMSTER, LIVER, S-9, AROCLOR 1254 (30%), Method: PREINCUBATION inactive; negative | Test System: AMES SALMONELLA TYPHIMURIUM, Strain/Indicator: TA97, Metabolic Activation: NONE, Method: PREINCUBATION inactive; negative | Test System: AMES SALMONELLA TYPHIMURIUM, Strain/Indicator: TA97, Metabolic Activation: RAT, LIVER, S-9, AROCLOR 1254 (10%), Method: PREINCUBATION inactive; negative | Test System: AMES SALMONELLA TYPHIMURIUM, Strain/Indicator: TA97, Metabolic Activation: RAT, LIVER, S-9, AROCLOR 1254 (30%), Method: PREINCUBATION inactive; negative | Test System: AMES SALMONELLA TYPHIMURIUM, Strain/Indicator: TA98, Metabolic Activation: HAMSTER, LIVER, S-9, AROCLOR 1254 (10%), Method: PREINCUBATION inactive; negative | Test System: AMES SALMONELLA TYPHIMURIUM, Strain/Indicator: TA98, Metabolic Activation: HAMSTER, LIVER, S-9, AROCLOR 1254 (30%), Method: PREINCUBATION inactive; negative | Test System: AMES SALMONELLA TYPHIMURIUM, Strain/Indicator: TA98, Metabolic Activation: NONE, Method: PREINCUBATION inactive; negative | Test System: AMES SALMONELLA TYPHIMURIUM, Strain/Indicator: TA98, Metabolic Activation: RAT LIVER S-9, PCB, Method: PREINCUBATION inactive; negative | Test System: AMES SALMONELLA TYPHIMURIUM, Strain/Indicator: TA98, Metabolic Activation: RAT, LIVER, S-9, AROCLOR 1254 (10%), Method: PREINCUBATION inactive; negative | Test System: AMES SALMONELLA TYPHIMURIUM, Strain/Indicator: TA98, Metabolic Activation: RAT, LIVER, S-9, AROCLOR 1254 (30%), Method: PREINCUBATION inactive; negative | Test System: AMES SALMONELLA TYPHIMURIUM, Strain/Indicator: TA100, Metabolic Activation: HAMSTER, LIVER, S-9, AROCLOR 1254 (10%), Method: PREINCUBATION inactive; negative | Test System: AMES SALMONELLA TYPHIMURIUM, Strain/Indicator: TA100, Metabolic Activation: HAMSTER, LIVER, S-9, AROCLOR 1254 (30%), Method: PREINCUBATION inactive; negative | Test System: AMES SALMONELLA TYPHIMURIUM, Strain/Indicator: TA100, Metabolic Activation: NONE, Method: PREINCUBATION inactive; negative | Test System: AMES SALMONELLA TYPHIMURIUM, Strain/Indicator: TA100, Metabolic Activation: RAT LIVER S-9, PCB, Method: PREINCUBATION inactive; negative | Test System: AMES SALMONELLA TYPHIMURIUM, Strain/Indicator: TA100, Metabolic Activation: RAT, LIVER, S-9, AROCLOR 1254 (10%), Method: PREINCUBATION inactive; negative | Test System: AMES SALMONELLA TYPHIMURIUM, Strain/Indicator: TA100, Metabolic Activation: RAT, LIVER, S-9, AROCLOR 1254 (30%), Method: PREINCUBATION inactive; negative | Test System: AMES SALMONELLA TYPHIMURIUM, Strain/Indicator: TA104, Metabolic Activation: NONE, Method: PREINCUBATION inactive; negative | Test System: AMES SALMONELLA TYPHIMURIUM, Strain/Indicator: TA104, Metabolic Activation: RAT LIVER S-9, PCB, Method: PREINCUBATION inactive; negative | Test System: AMES SALMONELLA TYPHIMURIUM, Strain/Indicator: TA1535, Metabolic Activation: HAMSTER, LIVER, S-9, AROCLOR 1254 (10%), Method: PREINCUBATION inactive; negative | Test System: AMES SALMONELLA TYPHIMURIUM, Strain/Indicator: TA1535, Metabolic Activation: HAMSTER, LIVER, S-9, AROCLOR 1254 (30%), Method: PREINCUBATION inactive; negative | Test System: AMES SALMONELLA TYPHIMURIUM, Strain/Indicator: TA1535, Metabolic Activation: NONE, Method: PREINCUBATION inactive; negative | Test System: AMES SALMONELLA TYPHIMURIUM, Strain/Indicator: TA1535, Metabolic Activation: RAT, LIVER, S-9, AROCLOR 1254 (10%), Method: PREINCUBATION inactive; negative | Test System: AMES SALMONELLA TYPHIMURIUM, Strain/Indicator: TA1535, Metabolic Activation: RAT, LIVER, S-9, AROCLOR 1254 (30%), Method: PREINCUBATION inactive; negative | Test System: AMES SALMONELLA TYPHIMURIUM, Strain/Indicator: TA1537, Metabolic Activation: HAMSTER, LIVER, S-9, AROCLOR 1254 (30%), Method: PREINCUBATION inactive; negative | Test System: AMES SALMONELLA TYPHIMURIUM, Strain/Indicator: TA1537, Metabolic Activation: NONE, Method: PREINCUBATION inactive; negative | Test System: AMES SALMONELLA TYPHIMURIUM, Strain/Indicator: TA1537, Metabolic Activation: RAT, LIVER, S-9, AROCLOR 1254 (30%), Method: PREINCUBATION inactive; negative | Test System: E.COLI, Strain/Indicator: WP2 UVRA, Metabolic Activation: NONE, Method: PREINCUBATION inactive; negative | Test System: E.COLI, Strain/Indicator: WP2 UVRA, Metabolic Activation: RAT LIVER S-9, PCB, Method: PREINCUBATION inactive; negative

O=c1ccc2ccccc2[nH]1
inactive: Test System: AMES SALMONELLA TYPHIMURIUM, Strain/Indicator: TA100, Metabolic Activation: NONE, Method: STANDARD PLATE inactive; negative | Test System: AMES SALMONELLA TYPHIMURIUM, Strain/Indicator: TA100, Metabolic Activation: RAT, LIVER, S-9, AROCLOR 1254 (10% OR 20%), Method: STANDARD PLATE inactive; negative
